According to patent EP4807001A1, “MODIFICATION TEMPLATE FOR IMPROVING INHIBITORY EFFECT OF DOUBLE-STRANDED OLIGONUCLEOTIDE ON TARGET GENE, COMBINATION THEREOF AND USE THEREOF” (Hangzhou Tianlong Pharmaceutical Co., Ltd., priority 2023, dated 2025):

Experiments:
[1] = test system: AGT mRNA; assay: Inhibition of AGT mRNA expression in primary human hepatocytes via free uptake, qRT-PCR (Example 24); assay type: cell-based; conditions: 0.0064 nM to 100 nM, read-out: IC50 against AGT
Procedure: The inhibitory effects of the test samples on AGT mRNA expression in primary human hepatocytes were evaluated by qRT-PCR.
The culture medium was pre-warmed at a constant temperature of 37°C for at least 30 minutes. 300 µL of PBS was added to each well of a collagen-coated 24-well plate, which was shaken several times, and the PBS was aspirated. A cryovial containing hepatocytes was removed from liquid nitrogen, placed in a 37°C water bath, and gently shaken until only a small amount of ice crystals remained in the vial. The cell suspension was poured into thawing medium in one step. 1 mL of thawing medium was pipetted to rinse the inner wall of the cryovial 2 to 3 times. The cell suspension in thawing medium was mixed by inversion. The vial was centrifuged at 50 g for 5 minutes at room temperature, with acceleration set to 5 and deceleration set to 3. The cell suspension was diluted to 3 × 10^5 cells/mL in seeding medium, seeded into a 24-well plate at 0.5 mL per well, followed by incubation in an incubator for 24 hours.
The test samples were diluted to 100 to 0.0064 nM in primary human hepatocyte maintenance medium. […]
The RNA expression levels of the target gene in each sample were calculated based on Ct values using the ΔΔCt relative quantification method. Relative expression of the target gene was expressed as 2^-ΔΔCt. […]

[2] = test system: HBV; assay: AAV-HBV mouse model, low dose 0.5 mg/kg (Example 15); assay type: in vivo, AAV-HBV mice; conditions: for Log10 HBV DNA (IU/mL) / Log10 HBeAg (S/CO) / Log10 HBsAg (IU/mL) / HBsAb: plasma; for Log10 HBV DNA (IU/mL) / Log10 HBeAg (S/CO) / Log10 HBsAg (IU/mL): AAV-HBV mice, siRNA 0.5 mg/kg s.c. D0/7/14, ETV 0.1 mg/kg daily i.g.
Procedure: In this example, several sequences were exemplarily selected, such as the sequences C207S-DV32SPG5, C207S-DV29SPG5, C418S-DV34SPd7BG5, and C1575-DV27PG5 from Example 14, as shown in Table 49. The in vivo efficacy of these RNAi agents at a low dose (e.g., 0.5 mg/kg) was analyzed using an AAV-HBV mouse model.
Refer to Example 7. Table 51-10: Details of grouping and dosing

[3] = Plasma ALT levels in AAV-HBV mice (Examples 14-16); assay type: in vivo
Procedure: At week 4 (D-14) and week 5 (D-7) post-modeling, on the day prior to dosing (D0), and weekly post-dosing, 200 µL of blood was collected from the inner canthus and added to an EDTA-K2 tube, followed by centrifugation at 1000 g for 10 minutes to obtain plasma. The 12 mice in the two groups were subjected to challenge on D60. 200 µL of blood was collected from the inner canthus on D63, D67, D74, and D81, respectively, and added to an EDTA-K2 tube, followed by centrifugation at 1000 g for 10 minutes to obtain plasma. 20 µL of plasma was added to 980 µL of PBS, vortexed thoroughly, and analyzed for HBsAg, HBV DNA, HBeAg, and ALT levels. Separately, 15 µL of plasma was added to 210 µL of PBS, vortexed thoroughly, and analyzed for HBsAb levels. All processed samples to be tested were analyzed by Guangzhou Huayin Medical Research Institute. The remaining plasma was stored at - 80°C.
Blood was collected from all animals via submandibular venipuncture on Days -2, 6, 13, 20, 27, and 34. The collected blood samples were anticoagulated with EDTA and centrifuged at 5000 rpm for 10 minutes to obtain serum. After blood collection, the serum was separated, diluted with PBS, and sent for analysis. A 10 µL aliquot of serum was taken from each sample, diluted to 500 µL with PBS (50-fold dilution), and sent to Beijing DIAN Medical Laboratory Co., Ltd. for analysis of serum HBV DNA, HBeAg, and HBsAg. A 30 µL aliquot of serum was taken from each sample, diluted to 120 µL with PBS (4-fold dilution), and sent to Beijing DIAN Medical Laboratory Co., Ltd. for analysis of serum ALT. The remaining plasma was stored at -80°C.

Work on Zilebesiran yielded an IC50 [1] of 7.07 nM.
In the case of C=C1[C@H](CO)[C@@H](O)C[C@@H]1n1cnc2c(=O)[nH]c(N)nc21 [entecavir], the “Number of mice producing HBsAb” value ([2]; D7, low dose 0.5 mg/kg) is reported as 0, the “Number of mice producing HBsAb” value ([2]; D14, low dose 0.5 mg/kg) is reported as 0 and the “Number of mice producing HBsAb” value ([2]; D21, low dose 0.5 mg/kg) is reported as 0. The “Number of mice producing HBsAb” value ([2]; D28, low dose 0.5 mg/kg) was 0, the “Number of mice producing HBsAb” value ([2]; D35, low dose 0.5 mg/kg) was 0 and the “Number of mice producing HBsAb” value ([2]; D42, low dose 0.5 mg/kg) was 0. For the same compound, the “Number of mice producing HBsAb” value ([2]; D49, low dose 0.5 mg/kg) was 0, the “Number of mice producing HBsAb” value ([2]; D56, low dose 0.5 mg/kg) was 0 and the “Log10 HBV DNA (IU/mL)” value ([2]; D0) was 6.91 ± 0.58 IU/mL. The “Log10 HBeAg (S/CO)” value ([2]; D0) was 3.73 ± 0.06 S/CO, the “Log10 HBsAg (IU/mL)” value ([2]; D0) was 3.47 ± 0.34 IU/mL and the “Log10 HBV DNA (IU/mL)” value ([2]; D7) was 4.49 ± 0.54 IU/mL. For the same compound, the “Log10 HBeAg (S/CO)” value ([2]; D7) was 3.72 ± 0.05 S/CO, the “Log10 HBsAg (IU/mL)” value ([2]; D7) was 3.50 ± 0.33 IU/mL and the “Log10 HBV DNA (IU/mL)” value ([2]; D14) was 3.85 ± 0.24 IU/mL. The “Log10 HBeAg (S/CO)” value ([2]; D14) was 3.72 ± 0.03 S/CO, the “Log10 HBsAg (IU/mL)” value ([2]; D14) was 3.54 ± 0.25 IU/mL and the “Log10 HBV DNA (IU/mL)” value ([2]; D21) was 3.89 ± 0.31 IU/mL. For the same compound, the “Log10 HBeAg (S/CO)” value ([2]; D21) was 3.66 ± 0.05 S/CO, the “Log10 HBsAg (IU/mL)” value ([2]; D21) was 3.74 ± 0.14 IU/mL and the “Log10 HBV DNA (IU/mL)” value ([2]; D28) was 3.77 ± 0.37 IU/mL. For the same compound, the “Log10 HBeAg (S/CO)” value ([2]; D28) was 3.71 ± 0.06 S/CO, the “Log10 HBsAg (IU/mL)” value ([2]; D28) was 3.94 ± 0.27 IU/mL and the “Log10 HBV DNA (IU/mL)” value ([2]; D35) was 3.74 ± 0.25 IU/mL. For the same compound, the “Log10 HBeAg (S/CO)” value ([2]; D35) was 3.66 ± 0.05 S/CO, the “Log10 HBsAg (IU/mL)” value ([2]; D35) was 3.96 ± 0.39 IU/mL and the “Log10 HBV DNA (IU/mL)” value ([2]; D42) was 3.63 ± 0.08 IU/mL. The “Log10 HBeAg (S/CO)” value ([2]; D42) was 3.68 ± 0.05 S/CO, the “Log10 HBsAg (IU/mL)” value ([2]; D42) was 4.04 ± 0.40 IU/mL and the “Log10 HBV DNA (IU/mL)” value ([2]; D49) was 3.97 ± 0.13 IU/mL. The “Log10 HBeAg (S/CO)” value ([2]; D49) was 3.69 ± 0.08 S/CO, the “Log10 HBsAg (IU/mL)” value ([2]; D49) was 4.22 ± 0.33 IU/mL and the “Log10 HBV DNA (IU/mL)” value ([2]; D56) was 4.04 ± 0.32 IU/mL. The “Log10 HBeAg (S/CO)” value ([2]; D56) was 3.70 ± 0.04 S/CO, the “Log10 HBsAg (IU/mL)” value ([2]; D56) was 4.20 ± 0.30 IU/mL and the “Log10 HBV DNA (IU/mL)” value ([2]; D-7 (before dosing)) was 6.65 ± 0.58 IU/mL. For the same compound, the “Log10 HBeAg (S/CO)” value ([2]; D-7 (before dosing)) was 3.77 ± 0.06 S/CO, the “Log10 HBsAg (IU/mL)” value ([2]; D-7 (before dosing)) was 3.36 ± 0.26 IU/mL and the HBsAb ([2]; D7, low dose 0.5 mg/kg) was 30 mIU/mL. For the same compound, the HBsAb ([2]; D14, low dose 0.5 mg/kg) was 30 mIU/mL, the HBsAb ([2]; D21, low dose 0.5 mg/kg) was 30 mIU/mL and the HBsAb ([2]; D28, low dose 0.5 mg/kg) was 30 mIU/mL. It also gave an HBsAb ([2]; D35, low dose 0.5 mg/kg) of 30 mIU/mL, an HBsAb ([2]; D42, low dose 0.5 mg/kg) of 30 mIU/mL and an HBsAb ([2]; D49, low dose 0.5 mg/kg) of 30 mIU/mL. The HBsAb ([2]; D56, low dose 0.5 mg/kg) was 30 mIU/mL, the ALT ([3]; D7, Example 15 (low dose 0.5 mg/kg)) was 75 U/L and the ALT ([3]; D14, Example 15 (low dose 0.5 mg/kg)) was 75 U/L. It also gave an ALT ([3]; D21, Example 15 (low dose 0.5 mg/kg)) of 75 U/L, an ALT ([3]; D28, Example 15 (low dose 0.5 mg/kg)) of 75 U/L and an ALT ([3]; D35, Example 15 (low dose 0.5 mg/kg)) of 75 U/L. For the same compound, the ALT ([3]; D42, Example 15 (low dose 0.5 mg/kg)) was 75 U/L.
